Where “and” joins values, the source holds several entries; their conditions need not be identical. Identical values can stand only once. Like-named read-outs stand apart in the source and are kept apart here.
Tests used:
RXR-VDR heterodimer = molecular target: T1, RXR-VDR heterodimer (Homo sapiens, UniProt P11473); test: RXR-VDR heterodimerization assay (SaOS-2 cells); format: cell-based; conditions: Gal4-RXR / VP16-VDR-LBD luciferase reporter, Table 1
T1 construct: Add the Gal4-RXR-DEF and VP16-VDR-LBD; expressed in transfected cells; host or cells: SaOS-2 cells
T1 sequence (P11473 127-423 limits assumed): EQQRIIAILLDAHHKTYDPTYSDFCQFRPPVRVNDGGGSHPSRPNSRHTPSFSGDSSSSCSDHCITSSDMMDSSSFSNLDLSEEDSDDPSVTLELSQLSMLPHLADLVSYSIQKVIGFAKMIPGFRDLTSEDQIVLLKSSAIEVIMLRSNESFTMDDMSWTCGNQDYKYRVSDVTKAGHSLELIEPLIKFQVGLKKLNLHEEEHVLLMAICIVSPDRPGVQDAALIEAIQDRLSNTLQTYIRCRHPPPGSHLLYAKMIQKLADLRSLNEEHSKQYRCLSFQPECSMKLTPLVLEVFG
T1 sequence (P19793 201-462 partner limits assumed): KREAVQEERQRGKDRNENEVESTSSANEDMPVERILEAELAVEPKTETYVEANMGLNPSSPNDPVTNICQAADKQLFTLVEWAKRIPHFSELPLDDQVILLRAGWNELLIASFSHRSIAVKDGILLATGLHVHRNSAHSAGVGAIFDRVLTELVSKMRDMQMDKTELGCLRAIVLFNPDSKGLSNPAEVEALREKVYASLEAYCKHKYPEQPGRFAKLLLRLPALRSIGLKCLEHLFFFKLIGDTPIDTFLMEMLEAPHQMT
Protocol: 1. The RXR-VDR HeterodimerAssay:
This assay provides the VDR activity of a test compound.
(1) Materials and Method for RXR-VDR Heterodimerization Assay:
Luciferase Assay Reagent: • Use Steady-Glo Luciferase Reagent from Promega (Cat #E2550) Consists of: a. E2533 Assay Substrate, lyopholized product and b. E2543 Assay Buffer. • Thaw at room temperature • Store Cell Harvesting Aspirate media from culture flask, rinse cells with HBSS and aspirate. Add trypsin and incubate. When cells appear detached, resuspend cells in growth media. Transfer into a new flask with fresh growth media for passaging the cells. Plate well plates and two extra plates A. Cell Count Mix the cell suspension using pipette Use Hematocytometer to count the cells Load cell suspension onto the hemocytometer chamber Count cells. […] In sterile flask add cell suspension to plating media. Mix. Add cells/well. Place the cells in the incubator. Cells should be about 75% confluent prior to transfection. DAY 2: Transfection Step 1: DNA and Media Add plain DMEM media to tubes for mixing the DNA Add the Reporter gene pFR-LUC Add the Gal4-RXR-DEF and VP16-VDR-LBD Step 2: FuGENE and Media Prepare plain DMEM media in a ubes for mixing FuGENE Add FuGENE 6 Transfection Reagent Incubate Step 3: FuGENE, DNA and Media Complex Add FuGENE Media complex from step 2 to DNA Media complex from step 1 Incubate Step 4: FuGENE, DNA and Media Complex to-well plate Add FuGENE-DNA-Media complex from step 3 to each plate Incubate. […] Day 4: Luciferase Assay Read the plates after drug treatment Remove part of media from all the wells and leave remainder Add Steady-Glo Luciferase Reagent mixture/wells Incubate Count each well using a Luminescence counter, Top Count NXT by Packard
Set a delay between plates to reduce the background.

KERtr cells = test: Keratinocyte proliferation assay; format: cell-based; conditions: Homo sapiens, 72 h, BrdU incorporation, Table 2, read-out: Kera. Prolif. IC50
Protocol: 5. The Keratinocyte Proliferation Assay
This Assay is indicative for the treatment of psoriasis.
(5) The Keratinocyte Proliferation Assay:
KERtr cells (Human skin keratinocyte transformed with a retrovirus vector, obtained from ATCC) were plated in 96-well flat-bottomed plates (3000 cells/well) in 100 μl keratinocyte serum free medium supplemented with bovine pituitary extract in the absence of EGF (Life Technologies, Rockville, Md.) and incubated at 37° C. for two days. The cells were treated with various concentrations of VDR ligands (ten-fold serial dilution from 10,000 nM to 0.1 nM in triplicate), dissolved in 100 μl keratinocyte serum free medium supplemented with bovine pituitary extract in the absence of EGF and incubated at 37° C. for 72 hr. […] Potency values (IC50) values were determined as the concentration (nM) of compound that elicited a half-maximal response.

DBF mice [1] = test: Mouse hypercalcemia assay; conditions: oral gavage for 6 days, serum ionized calcium 6 hours after last dosing; Table 1
Text: The Mouse Hypercalcemia Assay
(§1) The Mouse Hypercalcemia Assay is a six day hypercalcemia test for toxicity and selectivity.
(§2) (4) Materials and Method for the Mouse Hypercalcemia Assay:
(§3) Weanling, virus-antibody-free, five to six weeks old female DBF mice (Harlan, Indianapolis, Ind.) are used for all the studies. Animals are allowed to acclimate to local vivarium conditions for 2 days. […] The animals then are divided into groups with 4-5 mice per group. Different doses of test compounds prepared in 10% Ethanol and 90% sesame oil are administered to mice orally via gavage for 6 days. 1α-25(OH)2D3 0.5 μg/kg/d was also given to one group of mice as the positive control. […] Raw data of group differences is assessed by analysis of variance (ANOVA) using Fisher's protected least significant difference (PLSD) where the significance level was P<0.05.

rat osteocalcin promoter = test: OCN (osteocalcin) promoter assay; format: cell-based; conditions: Rattus norvegicus, 48 h, RG-15 (ROS 17/2.8) cells, 48 hr treatment; Table 1
Protocol: 3. The OCN (Osteocalcin) Promoter Assay
The OCN Promoter Assay is an indicator and marker for osteoporosis. […] Preferred assay results are less than 50 nM.
(3) Materials and Method for the OCN Promoter Assay:
The activation of osteocalcin by VDR ligands was evaluated in a rat osteoblast-like cell line RG-15 (ROS 17/2.8) stably expressing rat osteocalcin promoter fused with luciferase reporter gene. […] Confluent RG-15 cells maintained in DMEM/F-12 medium (3:1) containing 5% FBS, 300 μg/ml G418 and at 37° C. under 5% CO2/95% air atmosphere were trypsinized (0.25% trypsin) and plated into white opaque 96-well cell culture plates (25000 cells/well). After 24 hr, cells (in DMEM/F-12 medium+2% FBS) were treated with various concentrations of compounds, dissolved in DMSO. The final DMSO concentration remained at 0.01% (v/v). After 48 hr treatment, the medium was removed, cells were lysed with 50 μl of lysis buffer (From Luciferase reporter assay system, Roche Diagnostics, Indianapolis, Ind.) and assayed for luciferase activity using the Luciferase Reporter Gene Assay kit from Boehringer Mannheim as per manufacturer's specifications.

IL-10 = test: Human IL-10 induction assay in PBMCs; format: cell-based; conditions: PBMC; TPA/PHA treated human PBMCs; Table 2
Text: 6. The IL-10 Induction Assay
This is an in vitro efficacy assay for psoriasis, abscess and adhesion. Psoriasis involves both keratinocytes and immune cells. IL-10 is a unique cytokine because it is anti-inflammatory and immunosuppressive. This assay tells us whether a VDRM is able to function as an agonist in PBMCs ([…]) or not.
(6) Materials and Method for Human IL-10 Induction Assay:
Isolation of Peripheral Blood Mononuclear Cells (PBMCs):
Stimulation of PBMC: • L. Prepare TPA in DMSO. • M. Dissolve PHA in water. • N. Plate TPA/PHA treated PBMCs in well plates. • O. Incubate.
Sample Collection and Assay: • S. Remove all the cells by centrifugation and assay the supernatant for IL-10 by immunoassay. • T. Perform IL-10 assay using anti-human IL-10 antibody coated beads, as described by the manufacturer (Linco Research Inc., St. Charles, Mo.). (8) CaT1 Assay

VDR = molecular target: T2, VDR (Homo sapiens, UniProt P11473); test: Caco-2 cell co-transfection assay (VDR CTF); format: cell-based; conditions: Caco-2 cells, pGal4-VDR-LBD luciferase co-transfection; Table 1
T2 construct: the receptor expression vector pGal4-VDR-LBD (10 ng); expressed in transfected cells; host or cells: Caco-2 cells
T2 sequence (P11473 127-423 limits assumed): T1 sequence (P11473 127-423 limits assumed)
Protocol: 2. The Caco-2 Cell Co-Transfection Assay:
The Caco-2 cell assay is an indicator for the undesirable condition of hypercalcemia. This co-transfection assay is a surrogate assay for in vivo calcemic activity of VDR ligands. […] Preferred assay results are greater than 1000 nM.
(2) Materials and Method for The Caco-2 Cell Assay:
Caco-2 cells, grown in phenol red free, DMEM (Invitrogen, Carlsbad, Calif.) containing 10% charcoal-stripped FCS (Hyclone, Logan, Utah), were transfected with Fugene 6 reagent (Roche Diagnostics, Indianapolis, Ind.). Cells (5000/well) were plated 18 h before transfection in a 96 well plate. The Cells were transfected with Gal4-responsive reporter pFRLuc (150 ng, Stratagene, La Jolla Calif.) and the receptor expression vector pGal4-VDR-LBD (10 ng), along with Fugene 6 reagent (0.2 μl/well). The DNA-Fugene complex was formed by incubating the mixture for 30 min at room temperature. The cells were transfected in triplicate for 5 h, and treated with various concentrations of VDR ligands (form 0.01 nM to 10,000 nM concentration range) 18 h post-transfection. The luciferase activity was quantified using Steady-Glo reagent kit (Promega, Madison, Wis.) as per manufacturer's specifications.

DBF mice [2] = conditions: in vivo, po
Text: The Mouse Hypercalcemia Assay
as §1, §2, §3

Compound	EC50 (RXR-VDR heterodimer)	IC50 (KERtr cells) [nM]	Mouse Hypercal (DBF mice [1]) [µg/kg/day]	EC50 (rat osteocalcin promoter) [nM]	IC50 (IL-10) [nM]	EC50 (VDR) [nM]	Mouse Hypercal (DBF mice [2]) [µg/kg/day]
CCC(CC)(c1ccc(OCC(=O)C(C)(C)C)c(C)c1)c1cc2cc(C(=O)NCC(=O)O)ccc2s1 [Ex 19, [(2-{1-[4-(3,3-Dimethyl-2-oxo-butoxy)-3-methyl-phenyl]-1-ethyl-propyl}-benzo[b]thiophene-5-carbonyl)-amino]-acetic acid]	114 nM and 21 nM	16	>300	4.7	149	815	
CCC(CC)(c1ccc(OCC(=O)C(C)(C)C)c(C)c1)c1cc2ccc(C(=O)NCC(=O)O)cc2s1 [Ex. 11, [(2-{1-[4-(3,3-dimethyl-2-oxo-butoxy)-3-methyl-phenyl]-1-ethyl-propyl}-benzo[b]thiophene-6-carbonyl)-amino]-acetic acid]	45 nM	2	>300	0.2	10	299	
C=C1/C(=C\C=C2/CCC[C@]3(C)[C@@H]([C@H](C)CCCC(C)(C)O)CC[C@@H]23)C[C@@H](O)C[C@@H]1O [AA, 1α,25-dihydroxyvitamin D3]							0.06

Source: US7897789B2, “Vitamin D receptor modulators” (Eli Lilly and Company, priority 2003, dated 2011)
